According to US10577610B2, “EpCAM aptamers and conjugates thereof” (Deakin University, priority 2015, dated 2020):
Like-named read-outs stand apart in the source and are kept apart here. [invdT] = inverted (3'-3') thymidine; {TYE665} = TYE665 fluorescent dye

Assays:
HEY cells = test: Confocal microscopy internalisation into HEY cells; type: cell-based, human
Description: Confocal microscopy was used as a means of visualising aptamer internalisation into the cells. Both aptamers and cells were prepared in the same manner as described above before they were mixed and allowed to incubate at 37° C. The aptamers were used at a concentration of 200 nM and were allowed to incubate for 60 minutes. The concentration for the conjugate (bifunctional) aptamers was 400 nM and these were incubated with the cells for 120 minutes. Ten minutes prior to end of incubation, 2 μL of Hoechst nuclear stain (10 mg/mL) was added to cells. Cells were then washed three times with 100 μL of PBS as described above and resuspended in 20 μL (8×10^5 cells/well) in an 8-chambered slide (Lab-Tek II, Nunc) for visualisation. Cells were incubated in blocking buffer for 60 mins followed by resuspension in binding buffer containing the aptamer and incubated for 60 mins at 37° C. Bisbenzimide Hoechst 33342 (3 mg/ml) (Sigma) was added to the cells during the final 10 min of incubation. The aptamer solution was removed and the cells were washed three times for 5 min each in PBS prior to visualisation using a FluoView FV10i laser scanning confocal microscope (Olympus).
As with the anti-TfR single aptamers, it was necessary to ensure that the binding that had been observed could be attributed to cellular internalisation rather than surface attachment. This was done in a similar manner as before. […]

[1] = 40 nmol/Kg i.v.
Description: NOD/SCID mice received a single i.v. injection of 40 nmol/Kg of transferrin/EpCAM aptamer with four various structures (TEPP: Bi3 transferrin^+/EpCAM^+; TEPN: transferrin^+/EpCAM^−; TENP: transferrin^−/EpCAM^+; TENN: Bi1 transferrin^−/EpCAM^−). The concentration of aptamers, expressed as % of injected dose (ID) per mg of tissue, in tissues indicated was determined at 30 min and 60 min after the agent administration using ELISA. Data are means±SEM (n=3).
To evaluate the advantage of positive transferrin-modified aptamers over their negative transferrin-modified counterparts in brain uptake, the biodistribution of aptamers with four various structures (transferrin+/EpCAM+, transferrin+/EpCAM−, transferrin−/EpCAM+, transferrin−/EpCAM−) were studied at 30 min and 60 min after a single i.v. injection of these agents at a dosage of 40 nmol/Kg into NOD/SCID mice.

[2] = mouse, in vivo

For “TfR3: version of TfR1 with scrambled binding loop sequence, SEQ ID NO:6 (DNA GCGTGGTACCACGC; DNA, 5' {TYE665}, 3' [invdT], backbone not given here)”, the “Internalisation of anti-TfR aptamer into HEY cells” value (HEY cells) was “not detected”.

In the case of “5′-GCGCGGTACCGCGCTAACGGAGGTTGCGTCCGT-3′ (GCGCGGTACCGCGCTAACGGAGGTTGCGTCCGN; listed as DNA, chemistry not given here) [Bi3]”, the “Accumulation in brain, fold higher than transferrin−/EpCAM+” value ([1]; 30 min) is reported as 3.1 fold, the “Accumulation in brain, fold higher than transferrin−/EpCAM−” value ([1]; 30 min) is reported as 12.2 fold and the “Accumulation in brain, fold higher than transferrin−/EpCAM+” value ([1]; 60 min) is reported as 2.5 fold. The “Accumulation in brain, fold higher than transferrin−/EpCAM−” value ([1]; 60 min) was 10.8 fold.

With “Bi1: aptamer conjugate based on TfR1 and scrambled EpCAM binding loop, negative control, SEQ ID NO:8 (GCGCGTGCACGCGCTAACGGATTCCTTTTCCGN; listed as DNA, further chemistry not given here)” the “Internalisation into EpCAM-positive HEY cell line” value (HEY cells; conjugate aptamers, 400 nM, two hour) was “observed to internalise” and the “Fluorescent signal in dissected brain” value [2] was “no signal”.
